Measured values from patent publication US5643784A, “Indan derivatives” (H, Lundbeck A/S, priority 1990, dated 1997).

Columns and labels:
dopamine D-2 receptors = target: T1, dopamine D-2 receptors (Rattus norvegicus, UniProt P61169); experiment: Inhibition of 3H-spiperone binding to dopamine D-2 receptors in rat corpus striatum in vitro; details: for IC50: 3H-spiperone 0.5 nM, rat corpus striatum, 37° C., 10 min, read-out: Receptor Binding, IC50 DA D-2 3H-Spi
T1 construct: striatal tissue is dissected and weighed; from tissue; host or cells: corpus striatum of male Wistar rats, crude membranes
Experimental: INHIBITION OF ^3 H-SPIPERONE BINDING TO DOPAMINE D-2 RECEPTORS IN RAT CORPUS STRIATUM IN VITRO
By this method the inhibition by drugs of the binding of ^3 H-spiperone (0.5 nM) to dopamine D-2 receptors in membranes from rat corpus striatum is determined in vitro.
(§1) Male Wistar (Mol:Wistar) rats (125-250 g) are sacrificed and striatal tissue is dissected and weighed. The tissue is homogenized (Ultra Turrax, 10 sec.) in 10 ml of ice-cold 50 mM K-phosphate buffer pH 7.4 (at 25° C.). The homogenate is centrifuged twice at 20,000 g for 10 min. at 4° C. with rehomogenization of the pellet in 10 ml ice-cold buffer. The final pellet is homogenized in 1300 vol (w/v) ice-cold buffer.
Incubation tubes kept on ice in triplicate receive 100 μl of drug solution in water (or water for total binding) and 4000 μl of tissue suspension (final tissue content corresponds to 3.08 mg original tissue). The binding experimental is initiated by addition of 100 μl of ^3 H-spiperone (final concentration 0.5 nM) and by placing the tubes in a 37° C. water bath. After incubation for 10 min. the samples are filtered under vacuum (0-50 mBar) through Whatman GF/F filters (25 mm). The tubes are rinsed with 5 ml ice-cold buffer which are then poured on the filters. Thereafter, the filters are washed with 2×5 ml of buffer. The filters are placed in counting vials and 4 ml of appropriate scintillation fluid (e.g. Picofluor ™15) are added. After shaking for 1 h and storage 2 hrs in the dark the content of radioactivity is determined by liquid scintillation counting. Specific binding is obtained by subtracting the nonspecific binding in the presence of 10 μM of 6,7-ADTN.
(§2) For determination of the inhibition of binding five concentrations of drugs covering 3 decades are used.
^3 H-Spiperone=[phenyl-4-^3 H]-spiperone from Amersham International plc. England, specific activity 15-25 Ci/mmol.

α1 adrenoceptors = experiment: Inhibition of 3H-prazosin binding to α1 adrenoceptors in rat brain in vitro; details: for IC50: 3H-Prazosin 0.25 nM, rat brain, 25° C., 20 min, read-out: Receptor Binding, IC50 α1 3H-Praz
Experimental: INHIBITION OF ^3 H-PRAZOSIN BINDING TO α1 ADRENOCEPTORS IN RAT BRAIN IN VITRO
Method and results in Hyttel & Larsen, J. Neurochem, 44, 1615-1622, 1985; Skarsfeldt & Hyttel, Eur. J. Pharmacol. 125, 323-340, 1986.
as §1, with “(Mol:Wist)” for “(Mol:Wistar)”, “(125-200” for “(125-250”, “brain” for “striatal”, “[…] Tris” for “mM K-phosphate”, “7,7” for “7.4”, “400” for “1300”
Incubation tubes kept on ice in triplicate receive 100 μl of drug solution in water (or water for total binding) and 4000μl of tissue suspension (final tissue content corresponds to 10 mg original tissue). The binding experiment is initiated by addition of 100 μl of ^3 H-Prazosin (final concentration 0.25 nM) and by placing the tubes in a 25° C. water bath. After incubation for 20 min. the samples are filtered under vacuum (0-50 mBar) through Whatman GF/F filters (25 mm). The tubes are rinsed with 5 ml ice-cold buffer which then are poured on the filters. Thereafter, the filters are washed with 5 ml of buffer. The filters are placed in counting vials and 4 ml of appropriate scintillation fluid (e.g. Picofluor™15) are added. After shaking for 1 h and storage 2 hrs in the dark the content of radioactivity is determined by liquid scintillation counting. Specific binding is obtained by subtracting the nonspecific binding in the presence of 1 μM of Prazosin.
as §2
The measured cpm are plotted against drug concentration on semilogarithmic paper and the best fitting S-shaped curve is drawn. The IC50 value is determined as the concentration at which the binding is 50% of the total binding in control samples minus the nonspecific binding in the presence of 1 μM of Prazosin.
^3 H-Prazosin=[furoyl-5-^3 H]-Prazosin from New England Nuclear, specific activity approximately 20 Ci/mmol.

5-HT2 receptors = target: T2, 5-HT2 receptors (Rattus norvegicus, UniProt P14842); experiment: Inhibition of 3H-ketanserin binding to 5-HT2 receptors in rat cortex in vitro; details: for IC50: 3H-Ketanserin 0.5 nM, rat cortex, 37° C., 30 min, read-out: Receptor Binding, IC50 5-HT2 3H-Ket
T2 construct: cortical tissue is dissected and weighed; from tissue; host or cells: cortex of male Wistar rats, crude membranes
Experimental: Method in Hyttel, Pharmacology & Toxicology, 61, 126-129, 1987.
as §1, with “(Mol:Wist)” for “(Mol:Wistar)”, “cortical” for “striatal”, “tris” for “K-phosphate”, “7.7” for “7.4”, “C.). The centrifuge glassware used in this step has been rinsed by sonication for 10 min. in ethanol.” for “C.).”, “500” for “1300”
Incubation tubes kept on ice in triplicate receive 100 μl of drug solution in water (or water for total binding) and 2000 μl of tissue suspension (final tissue content corresponds to 4 mg original tissue). […] After incubation for 30 min. the samples are filtered under vacuum (0-50 mBar) through Whatman GF/F filters (25 mm). The tubes are rinsed with 5 ml ice-cold buffer which are then poured on the filters. Thereafter, the filters are washed with 2×5 ml of buffer. The filters are placed in counting vials and 4 ml of appropriate scintillation fluid (e.g. Picofluor™15) are added. After shaking for 1 h and storage 2 hrs in the dark the content of radioactivity is determined by liquid scintillation counting. Specific binding is obtained by subtracting the nonspecific binding in the presence of 1 μM mianserin.
as §2
The IC50 value is determined as the concentration at which the binding is 50% of the total binding in control samples minus the nonspecific binding in the presence of 1 μM mianserin.

T1 sequence (P61169 whole entry): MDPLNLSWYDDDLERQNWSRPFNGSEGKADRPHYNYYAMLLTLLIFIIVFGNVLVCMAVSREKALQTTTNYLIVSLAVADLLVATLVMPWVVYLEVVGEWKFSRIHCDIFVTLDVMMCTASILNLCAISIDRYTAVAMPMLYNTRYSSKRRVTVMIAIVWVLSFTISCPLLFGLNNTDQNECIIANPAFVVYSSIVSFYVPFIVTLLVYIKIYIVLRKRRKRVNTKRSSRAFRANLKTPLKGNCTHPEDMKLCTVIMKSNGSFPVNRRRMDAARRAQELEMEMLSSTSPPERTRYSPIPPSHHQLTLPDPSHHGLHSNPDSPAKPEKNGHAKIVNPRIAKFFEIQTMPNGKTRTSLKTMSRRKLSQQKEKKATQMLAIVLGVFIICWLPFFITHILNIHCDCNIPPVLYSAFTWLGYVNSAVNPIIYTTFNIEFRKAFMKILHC
T2 sequence (P14842 whole entry): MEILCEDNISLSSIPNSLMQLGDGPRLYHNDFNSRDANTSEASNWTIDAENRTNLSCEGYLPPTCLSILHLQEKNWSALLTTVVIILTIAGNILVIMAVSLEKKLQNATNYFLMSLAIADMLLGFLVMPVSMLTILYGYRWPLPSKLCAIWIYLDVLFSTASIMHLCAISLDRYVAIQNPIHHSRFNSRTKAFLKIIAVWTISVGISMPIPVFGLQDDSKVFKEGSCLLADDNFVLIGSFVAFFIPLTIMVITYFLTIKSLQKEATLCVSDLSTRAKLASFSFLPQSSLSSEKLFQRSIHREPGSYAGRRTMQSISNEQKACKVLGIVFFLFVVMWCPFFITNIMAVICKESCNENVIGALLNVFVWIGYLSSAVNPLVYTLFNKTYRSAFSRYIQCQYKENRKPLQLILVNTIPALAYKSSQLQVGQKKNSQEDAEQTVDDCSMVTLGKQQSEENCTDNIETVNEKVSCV

Row | Compound | IC50 (dopamine D-2 receptors) | IC50 (α1 adrenoceptors) | IC50 (5-HT2 receptors) | affinity to 5-HT2 receptors (in words) (5-HT2 receptors) | affinity to D-2 receptors (in words) (dopamine D-2 receptors) | affinity to α1 adrenoceptors (in words) (α1 adrenoceptors)
1 | O=C1NCCN1CCN1CCN([C@@H]2C[C@@H](c3ccc(F)cc3)c3ccc(C(F)(F)F)cc32)CC1 (relative stereo) [Compound 39, reference compound] | 21 nM | 8.3 nM |  |  |  | 
2 | Cc1ccc([C@@H]2C[C@@H](N3CCN(CCN4CCN(C(C)C)C4=O)CC3)c3ccc(Cl)cc32)cc1 (relative stereo) [Compound 26, Trans-1-[2-[4-[5-chloro-3-(4-methylphenyl)-2,3-dihydro-1H-inden-1-yl]piperazin-1-yl]ethyl]-3-isopropyl-2-imidazolidinone] | 450 nM | 60 nM | 11 nM |  |  | 
3 | OCCN1CCN([C@@H]2C[C@@H](c3ccc(F)cc3)c3cc(Cl)ccc32)CC1 (relative stereo) [Compound 3, Trans-4-[5-chloro-3-(4-fluorophenyl)-2,3-dihydro-1H-inden-1-yl)-1-piperazine-ethanol] | 2200 nM | 230 nM | 25 nM |  |  | 
4 | Cc1ccc2c(c1)[C@H](c1ccc(F)cc1)C[C@H]2N1CCN(CCN2CCNC2=O)CC1 (relative stereo) [Compound 9, Trans-1-[2-[4-[3-(4-fluorophenyl)-5-methyl-2,3-dihydro-1H-inden-1-yl]piperazine-1-yl]ethyl]-2-imidazolidinone] | 370 nM | 220 nM | 3.7 nM |  |  | 
5 | O=C1N(CCN2CCN([C@@H]3C[C@@H](c4ccc(F)cc4)c4cc(Cl)ccc43)CC2)CCN1c1ccccc1 (relative stereo) [Compound 17, Trans-1-[2-[4-[5-chloro-3-(4-fluorophenyl)-2,3-dihydro-1H-inden-1-yl]piperazin-1-yl]ethyl]-3-phenyl-2-imidazolidinone] | 300 nM | 310 nM | 44 nM |  |  | 
6 | O=C1NCCCN1CCN1CCN([C@@H]2C[C@@H](c3ccc(F)cc3)c3cc(F)ccc32)CC1 (single isomer, unassigned) [(-)-33, (-)-Trans-1-[2-[4-[5-fluoro-3-(4-fluorophenyl)-2,3-dihydro-1H-inden-1-yl]piperazin-1-yl]ethyl]-tetrahydro-2(1H)-pyrimidinone] | 4600 nM |  | 57 nM |  |  | 
7 | O=C1NCCN1CCN1CCN([C@H]2C[C@H](c3ccc(F)cc3)c3cc(C(F)(F)F)ccc32)CC1 (single isomer, unassigned) [(+)-1] | 290 nM | 330 nM | 2 nM |  |  | 
8 | Cc1ccc2c(c1)[C@@H](c1ccc(F)cc1)C[C@@H]2N1CCN(CCO)CC1 (relative stereo) [Compound 8, Trans-4-[3-(4-fluorophenyl)-5-methyl-2,3-dihydro-1H-inden-1-yl]-1-piperazine ethanol] | 1000 nM | 270 nM | 12 nM |  |  | 
9 | CCN1CCN(CCN2CCN([C@@H]3C[C@@H](c4ccc(F)cc4)c4cc(Cl)ccc43)CC2)C1=O (relative stereo) [Compound 19, Trans-1-[2-[4-[5-chloro-3-(4-fluorophenyl)-2,3-dihydro-1H-inden-1-yl]piperazin-1-yl]ethyl]-3-ethyl-2-imidazolidinone] | 260 nM | 240 nM | 2.6 nM |  |  | 
10 | OCCN1CCN([C@@H]2C[C@@H](c3ccc(F)cc3)c3cc(C(F)(F)F)ccc32)CC1 (relative stereo) [Compound 5, Trans-4-[3-(4-fluorophenyl)-5-(trifluoromethyl)-2,3-dihydro-1H-inden-1-yl]-1-piperazineethanol] | 1300 nM | 380 nM | 8.9 nM |  |  | 
11 | CSc1ccc2c(c1)[C@H](c1ccc(F)cc1)C[C@H]2N1CCN(CCN2CCNC2=O)CC1 (relative stereo) [Compound 22, Trans-1-[2-[4-[3-(4-fluorophenyl)-5-(methylthio)-2,3-dihydro-1H-inden-1-yl]piperazin-1-yl]ethyl]-2-imidazolidinone] | 1100 nM | 240 nM | 3.5 nM |  |  | 
12 | CC(C)N1CCN(CCN2CCN([C@@H]3C[C@@H](c4cccc(F)c4)c4cc(Cl)ccc43)CC2)C1=O (relative stereo) [Compound 28, Trans-1-[2-[4-[5-chloro-3-(3-fluorophenyl)-2,3-dihydro-1H-inden-1-yl]piperazin-1-yl]ethyl]-3-isopropyl-2-imidazolidinone] | 490 nM | 970 nM | 26 nM |  |  | 
13 | Cc1cc([C@@H]2C[C@@H](N3CCN(CCO)CC3)c3ccc(Cl)cc32)cs1 (relative stereo) [Compound 6, Trans-4-[5-chloro-3-(2-methyl-4-thienyl)-2,3-dihydro-1H-inden-1-yl]-1-piperazineethanol] | 2600 nM | 1000 nM | 56 nM |  |  | 
14 | OCCN1CCN([C@@H]2C[C@@H](c3ccc(F)cc3)c3ccc(C(F)(F)F)cc32)CC1 (racemic) [Tefludazine, reference compound] | 10 nM | 17 nM | 4.6 nM | high affinity to all three receptor types | high affinity to all three receptor types | high affinity to all three receptor types
15 | O=C1NCCN1CCN1CCN([C@@H]2C[C@@H](c3ccc(F)cc3)c3ccccc32)CC1 [Irindalon, reference compound] | 400 nM | 16 nM | 3.4 nM | high affinity to 5-HT2 receptors |  | significant affinity to oh adrenoceptors
16 | O=C1NCCN1CCN1CCN([C@@H]2C[C@@H](c3ccc(F)cc3)c3ccc(Cl)cc32)CC1 (relative stereo) [Compound 41, reference compound] | 17 nM | 3.1 nM |  |  |  | 
17 | Fc1ccc([C@H]2C[C@H](N3CCNCC3)c3ccc(Cl)cc32)cc1 (single isomer, unassigned) [(+)-10] | 28000 nM |  | 3300 nM |  |  | 
